Measured values published in patent US8431597B2, “Benzimidazole derivatives” (Pfizer Inc., priority 2007, dated 2013).
Counter-ions that a name gives are not always drawn.

Molecular target: T1, Smoothened (SMO) (Mus musculus, UniProt P56726)
T1 construct: C3H10T1/2 cells (ATCC #CCL-226) were split and seeded; endogenous in cells; host or cells: C3H10T1/2 (ATCC #CCL-226)
Experiment: Smoothened (SMO)/Sonic Hedgehog (SHh) Transient Transcriptional Activation Assay (Gli-luciferase reporter in C3H10T1/2 cells)
Assay type: cell-based, murine
Conditions: C3H 10T1/2, 2 μM compound; transfected C3H10T1/2 cells, recombinant human SHh 250 ng/mL, 20 hours, luciferase readout; read-out: SMO CELL % INHIBITION @ 2 μM
Experimental: As noted above, the compounds of the invention are useful as inhibitors of SMO. • Methods for determining the in vitro activity of these compounds are described below: Smoothened (SMO)/Sonic Hedgehog (SHh) Transient Transcriptional Activation Assay
On Day 1, 2×10^6 C3H10T1/2 cells (ATCC #CCL-226) were split and seeded in 12 mL of growth medium Basal Medium Eagle (BME, Invitrogen #21010-046) supplemented with 2 mM L-glutamine (Invitrogen #25030-081), 0.1 units/mL penicillin and 0.1 μg/mL streptomycin (Invitrogen #15140-122), and 10% Fetal Bovine Serum (FBS, Invitrogen #16140-071) in a T-75 flask (Costar #3376). They were allowed to attach for 4 hours at 37° C., 5% CO2. The cells were then transfected using Fugene 6 (Roch #11 814 443 001) in the following reaction: 48 μL Fugene 6 and 745 μL Opti-MEM (Invitrogen #31985-070) were mixed and allowed to sit at room temperature for 5 minutes. 8 μg of pGL4.14/mGli(CS) DNA (10× murine Gli response elements and minimal CS promoter) and 0.5 μg of pEGFP DNA (Clontech) were added, gently mixed and incubated at room temperature for 20 minutes. This entire transfection mix was then added to the T-75 flask containing the cells. The cells were incubated at 37° C., 5% CO2 for 18-24 hours.
On Day 2, the transfected cells were trypsinized and seeded into white 96 well plates (Costar #3917) in 100 μL/well of growth medium at a concentration of 20,000 cells/well. The cells were allowed to recover for 4 hours before adding serum starvation medium Dulbecco's Modified Eagle Medium (DMEM, Invitrogen #21063-029) supplemented with 2 mM L-glutamine, 0.1 units/mL penicillin and 0.1 μg/mL streptomycin, and 0.5% Calf Serum (CS, Invitrogen #26170-043). The growth media was aspirated off, and the cells were rinsed with 100 μL of starvation media. 95 μL of starvation media was then added to each well. The cells were incubated for 20 hours at 37° C., 5% CO2.
On Day 3, cells were dosed with test compounds at a final concentration ranging from 2 μM to 2 nM. Immediately after dosing cells with compounds, recombinant human sonic hedgehog (SHh, R&D Systems #1845-SH) was add to a final concentration of 250 ng/mL. A 25 μg vial of SHh was reconstituted with 250 μL PBS/0.1% BSA to give a 100 ng/μL working stock. This working stock was then diluted 1:20 in starvation media. The transfected cells were incubated with compounds and SHh for 20 hours at 37° C., 5% CO2.
Luciferase assays were conducted on Day 4 using Dual-Glo Luciferase assay system (Promega #E2940) according to Promega's protocol. Briefly, Dual-Glo luciferase reagent was made up and 100 μL were added to each well of the 96 well plate containing media. Plates were shaken at room temperature for 10 minutes, and then read on TopCount (Perkin-Elmer). The luminescence was recorded.

T1 sequence (P56726 33-793): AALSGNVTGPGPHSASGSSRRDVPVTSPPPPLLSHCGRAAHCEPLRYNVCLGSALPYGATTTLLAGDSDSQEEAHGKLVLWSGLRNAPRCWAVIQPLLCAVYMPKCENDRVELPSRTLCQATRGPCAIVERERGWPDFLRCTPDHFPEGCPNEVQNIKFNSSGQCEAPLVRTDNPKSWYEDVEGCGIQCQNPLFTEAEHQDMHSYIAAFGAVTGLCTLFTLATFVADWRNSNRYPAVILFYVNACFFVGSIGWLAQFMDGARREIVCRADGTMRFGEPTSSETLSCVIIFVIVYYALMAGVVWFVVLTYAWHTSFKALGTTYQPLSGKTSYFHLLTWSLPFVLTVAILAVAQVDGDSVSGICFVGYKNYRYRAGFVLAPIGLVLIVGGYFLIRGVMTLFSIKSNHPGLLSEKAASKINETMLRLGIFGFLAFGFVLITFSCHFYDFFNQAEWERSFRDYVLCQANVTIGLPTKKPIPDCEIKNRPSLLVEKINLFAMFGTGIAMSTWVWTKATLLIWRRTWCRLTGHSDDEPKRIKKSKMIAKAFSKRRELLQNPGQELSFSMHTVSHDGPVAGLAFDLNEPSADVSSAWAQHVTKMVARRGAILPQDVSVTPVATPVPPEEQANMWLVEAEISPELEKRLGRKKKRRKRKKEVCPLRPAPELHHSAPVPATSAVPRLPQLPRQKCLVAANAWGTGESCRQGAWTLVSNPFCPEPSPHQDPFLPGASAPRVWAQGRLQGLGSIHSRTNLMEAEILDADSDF

Row | Compound | inhibition at 2 µM [%]
1 | Cc1ccc2nc([C@@H]3C[C@@H](NC(=O)Nc4ccc(Cl)c(C(F)(F)F)c4)CN3C(C)C)[nH]c2c1 [Example 23, 1-[4-chloro-3-(trifluoromethyl)phenyl]-3-[(3R,5S)-1-isopropyl-5-(6-methyl-1H-benzimidazol-2-yl)pyrrolidin-3-yl]urea] | 100
2 | CN1CC[C@@H](NC(=O)Nc2ccc(Cl)c(C(F)(F)F)c2)C[C@@H]1c1nc2ccccc2[nH]1 [Example 26, 1-[(2R,4R)-2-(1H-benzimidazol-2-yl)-1-methylpiperidin-4-yl]-3-[4-chloro-3-(trifluoromethyl)phenyl]urea hydrochloride] | 109
3 | CN1CC[C@@H](NC(=O)c2ccc3c(c2)OCCO3)C[C@@H]1c1nc2ccc(C(F)(F)F)cc2[nH]1 [Example 79, N-{(2R,4R)-1-methyl-2-[6-(trifluoromethyl)-1H-benzimidazol-2-yl]piperidin-4-yl}-2,3-dihydro-1,4-benzodioxine-6-carboxamide hydrochloride] | 99.2
4 | CN1CC[C@@H](NC(=O)Cc2ccccc2F)C[C@@H]1c1nc2ccccc2[nH]1 [Example 120, N-[(2R,4R)-2-(1H-benzimidazol-2-yl)-1-methylpiperidin-4-yl]-2-(2-fluorophenyl)acetamide trifluoroacetate] | 63.7
5 | COc1cc(C(=O)N[C@@H]2CCN(C)[C@@H](c3nc4ccccc4[nH]3)C2)ccc1F [Example 102, N-[(2R,4R)-2-(1H-benzimidazol-2-yl)-1-methylpiperidin-4-yl]-4-fluoro-3-methoxybenzamide trifluoroacetate] | 102
6 | O=C(N[C@H]1C[C@@H](c2nc3ccccc3[nH]2)N(C(=O)OCc2ccccc2)C1)c1ccc2c(c1)OCCO2 [Example 10, benzyl (2S,4S)-2-(1H-benzimidazol-2-yl)-4-[(2,3-dihydro-1,4-benzodioxin-6-ylcarbonyl)amino]pyrrolidine-1-carboxylate] | 106
7 | COc1ccc2nc([C@H]3C[C@H](NC(=O)c4ccc5c(c4)OCCO5)CCN3C)[nH]c2c1 [Example 38, N-[(2R,4R)-2-(6-methoxy-1H-benzimidazol-2-yl)-1-methylpiperidin-4-yl]-2,3-dihydro-1,4-benzodioxine-6-carboxamide hydrochloride] | 106
8 | CN(C)c1ccc2[nH]c([C@H]3C[C@H](NC(=O)c4ccc5c(c4)OCCO5)CCN3C)nc2c1 [Example 27, N-{(2R,4R)-2-[5-(dimethylamino)-1H-benzimidazol-2-yl]-1-methylpiperidin-4-yl}-2,3-dihydro-1,4-benzodioxine-6-carboxamide hydrochloride] | 108
9 | CN1CC[C@@H](NC(=O)Nc2cc(Cl)cc(Cl)c2)C[C@@H]1c1nc2ccccc2[nH]1 [Example 28, 1-[(2R,4R)-2-(1H-benzimidazol-2-yl)-1-methylpiperidin-4-yl]-3-(3,5-dichlorophenyl)urea hydrochloride] | 108
10 | CN1CC[C@@H](NC(=O)Nc2ccc(C(F)(F)F)nc2)C[C@@H]1c1nc2cc(C(F)(F)F)ccc2[nH]1 [Example 35, 1-{(2R,4R)-1-methyl-2-[5-(trifluoromethyl)-1H-benzimidazol-2-yl]piperidin-4-yl}-3-[6-(trifluoromethyl)pyridin-3-yl]urea hydrochloride] | 107
11 | O=C(Nc1ccc(Cl)c(C(F)(F)F)c1)N[C@@H]1CN[C@H](c2nc3ccc(F)cc3[nH]2)C1 [Example 13, 1-[4-chloro-3-(trifluoromethyl)phenyl]-3-[(3S,5S)-5-(6-fluoro-1H-benzimidazol-2-yl)pyrrolidin-3-yl]urea] | 84.2
12 | CN1CC[C@H](NC(=O)c2ccc3c(c2)OCCO3)C[C@@H]1c1nc2ccccc2[nH]1 [Example 94, N-[(2R,4S)-2-(1H-benzimidazol-2-yl)-1-methylpiperidin-4-yl]-2,3-dihydro-1,4-benzodioxine-6-carboxamide hydrochloride] | 79.7
13 | COc1ccc(C(=O)N[C@@H]2CCN(C)[C@@H](c3nc4ccccc4[nH]3)C2)cc1F [Example 117, N-[(2R,4R)-2-(1H-benzimidazol-2-yl)-1-methylpiperidin-4-yl]-3-fluoro-4-methoxybenzamide trifluoroacetate] | 65.4
14 | COc1ccc2[nH]c([C@H]3C[C@H](NC(=O)Nc4ccc(C#N)cc4)CCN3C)nc2c1 [Example 29, 1-(4-cyanophenyl)-3-[(2R,4R)-2-(5-methoxy-1H-benzimidazol-2-yl)-1-methylpiperidin-4-yl]urea hydrochloride] | 108
15 | CN1CC[C@@H](NC(=O)c2ccc3c(c2F)OCCO3)C[C@@H]1c1nc2ccccc2[nH]1 [Example 141, N-[(2R,4R)-2-(1H-benzimidazol-2-yl)-1-methylpiperidin-4-yl]-5-fluoro-2,3-dihydro-1,4-benzodioxine-6-carboxamide trifluoroacetate] | 85.3
16 | COc1ccc(C(=O)N[C@@H]2CCN(C)[C@@H](c3nc4ccccc4[nH]3)C2)cc1 [Example 111, N-[(2R,4R)-2-(1H-benzimidazol-2-yl)-1-methylpiperidin-4-yl]-4-methoxybenzamide trifluoroacetate] | 83.2
17 | CN1CC[C@@H](NC(=O)c2ccc3c(c2Cl)OCCO3)C[C@@H]1c1nc2cc(Cl)ccc2[nH]1 [Example 145, 5-chloro-N-[(2R,4R)-2-(5-chloro-1H-benzimidazol-2-yl)-1-methylpiperidin-4-yl]-2,3-dihydro-1,4-benzodioxine-6-carboxamide triflouroacetate] | 106
18 | CC(C)c1ccc(NC(=O)N[C@@H]2CCN(C)[C@@H](c3nc4ccccc4[nH]3)C2)cc1 [Example 53, 1-[(2R.4R)-2-(1H-benzimidazol-2-yl)-1-methylpiperidin-4-yl]-3-(4-isopropylphenyl)urea hydrochloride] | 105
19 | CN1C[C@H](NC(=O)Nc2ccc(Cl)c(C(F)(F)F)c2)C[C@H]1c1nc2ccc(F)cc2[nH]1 [Example 14, 1-[4-chloro-3-(trifluoromethyl)phenyl]-3-[(3R,5S)-5-(6-fluoro-1H-benzimidazol-2-yl)-1-methylpyrrolidin-3-yl]urea] | 81.8
20 | COc1ccc2[nH]c([C@H]3C[C@H](NC(=O)c4cc5c(cc4Cl)OCCO5)CCN3C)nc2c1 [Example 149, 7-chloro-N-[(2R,4R)-2-(5-methoxy-1H-benzimidazol-2-yl)-1-methylpiperidin-4-yl]-2,3-dihydro-1,4-benzodioxine-6-carboxamide triflouroacetate] | 35.3
21 | CN1CC[C@@H](NC(=O)c2ccc3c(c2)NC(=O)CO3)C[C@@H]1c1nc2ccccc2[nH]1 [Example 100, N-[(2R,4R)-2-(1H-benzimidazol-2-yl)-1-methylpiperidin-4-yl]-3-oxo-3,4-dihydro-2H-1,4-benzoxazine-6-carboxamide hydrochloride] | 63.7
22 | CN1CC[C@@H](NC(=O)Nc2ccc(C(F)(F)F)nc2)C[C@@H]1c1nc2ccccc2[nH]1 [Example 66, 1-[(2R,4R)-2-(1H-benzimidazol-2-yl)-1-methylpiperidin-4-y1]-3-[6-(trifluoromethyl)pyridin-3-yl]urea hydrochloride] | 103
23 | CN1CC[C@@H](NC(=O)Nc2ccc(C(F)(F)F)cc2)C[C@@H]1c1nc2ccccc2[nH]1 [Example 18, 1-[(2R,4R)-2-(1H-benzimidazol-2-yl)-1-methylpiperidin-4-yl]-3-[4-(trifluoromethyl)phenyl]urea hydrochloride] | 110
24 | CN1CC[C@@H](NC(=O)N2CCOCC2)C[C@@H]1c1nc2ccccc2[nH]1 [Example 95, N-[(2R,4R)-2-(1H-benzimidazol-2-yl)-1-methylpiperidin-4-yl]morpholine-4-carboxamide hydrochloride] | 78.7
25 | CN1CC[C@@H](NC(=O)c2ccc(C#N)cc2)C[C@@H]1c1nc2ccccc2[nH]1 [Example 121, N-[(2R,4R)-2-(1H-benzimidazol-2-yl)-1-methylpiperidin-4-yl]-4-cyanobenzamide trifluoroacetate] | 62.3
